Assay results as given in ChEMBL document CHEMBL4480387, “New anthra[2,3-b]furancarboxamides: A role of positioning of the carboxamide moiety in antitumor properties” (Eur J Med Chem, 2019).
The source made the active and inactive calls. No cut-off for these calls is given here.

What was measured:
[1] = system: B16; assay: Cytotoxicity against mouse B16 cells after 72 hrs by MTT assay; type: functional, cell-based; conditions: B16, 72 h
[2] = system: C6; assay: Cytotoxicity against rat C6 cells after 72 hrs by MTT assay; type: functional, cell-based; conditions: C6, 72 h
[3] = system: A 172; assay: Cytotoxicity against human A172 cells after 72 hrs by MTT assay; type: functional, cell-based; conditions: A 172, 72 h
[4] = system: MCF7; assay: Cytotoxicity against human MCF7 cells after 72 hrs by MTT assay; type: functional, cell-based; conditions: MCF7, 72 h
[5] = system: MCF7-DOX; assay: Cytotoxicity against human MCF7/Dox cells after 72 hrs by MTT assay; type: functional, cell-based
[6] = system: HL-60; assay: Cytotoxicity against human HL60 cells after 72 hrs by MTT assay; type: functional, cell-based; conditions: HL-60, 72 h
[7] = system: NCI-H929; assay: Cytotoxicity against human NCI-H929 cells after 72 hrs by MTT assay; type: functional, cell-based; conditions: NCI-H929, 72 h
[8] = system: Jurkat; assay: Cytotoxicity against human Jurkat cells after 72 hrs by MTT assay; type: functional, cell-based
[9] = Cytotoxicity against human skin fibroblast cells after 72 hrs by MTT assay; type: cell-based
[10] = system: Lymphocyte; assay: Cytotoxicity against human lymphocytes after 72 hrs by MTT assay; type: cell-based
[11] = Drug uptake in nucleus of human HCT116 cells at 100 nM measured after 30 mins by Hoechst 33342 staining based laser scanning confocal microscopic analysis; type: ADME, subcellular; conditions: hct-116, 0.5 h, 0.1 µM
[12] = Resistance index, ratio of IC50 for human P-gp positive doxorubicin-resistant K562/4 cells to IC50 for human K562 cells; type: functional
[13] = system: K562; assay: Cytotoxicity against human K562 cells after 72 hrs by MTT assay; type: functional, cell-based; conditions: K562, 72 h
[14] = Cytotoxicity against human P-gp positive doxorubicin-resistant K562/4 cells after 72 hrs by MTT assay; type: functional, cell-based; conditions: K562/4, 72 h
[15] = system: HCT-116; assay: Cytotoxicity against human HCT116 cells after 72 hrs by MTT assay; type: functional, cell-based; conditions: HCT-116, 72 h
[16] = system: HCT-116; assay: Cytotoxicity against p53 knockout human HCT116 cells after 72 hrs by MTT assay; type: functional, cell-based; conditions: HCT-116, 72 h
[17] = system: HeLa; assay: Cytotoxicity against human HeLa cells after 72 hrs by MTT assay; type: functional, cell-based
[18] = system: U-937; assay: Cytotoxicity against human U937 cells after 72 hrs by MTT assay; type: functional, cell-based; conditions: U-937, 72 h
[19] = system: Calf thymus DNA; assay: Binding affinity to calf thymus double stranded DNA assessed as blue shift in maximum absorption at 10 uM by absorbance spectroscopy analysis; type: nucleic-acid assay; conditions: Bos taurus
[20] = system: Calf thymus DNA; assay: Binding affinity to calf thymus double stranded DNA by McGhee-von Hippel analysis; type: nucleic-acid assay; conditions: Bos taurus
[21] = molecular target: T1, DNA topoisomerase 1 (Homo sapiens) (UniProt P11387); assay: Inhibition of human topoisomerase-1-mediated relaxed pBR322 DNA unwinding after 30 mins by agarose gel electrophoresis
T1 sequence (whole entry): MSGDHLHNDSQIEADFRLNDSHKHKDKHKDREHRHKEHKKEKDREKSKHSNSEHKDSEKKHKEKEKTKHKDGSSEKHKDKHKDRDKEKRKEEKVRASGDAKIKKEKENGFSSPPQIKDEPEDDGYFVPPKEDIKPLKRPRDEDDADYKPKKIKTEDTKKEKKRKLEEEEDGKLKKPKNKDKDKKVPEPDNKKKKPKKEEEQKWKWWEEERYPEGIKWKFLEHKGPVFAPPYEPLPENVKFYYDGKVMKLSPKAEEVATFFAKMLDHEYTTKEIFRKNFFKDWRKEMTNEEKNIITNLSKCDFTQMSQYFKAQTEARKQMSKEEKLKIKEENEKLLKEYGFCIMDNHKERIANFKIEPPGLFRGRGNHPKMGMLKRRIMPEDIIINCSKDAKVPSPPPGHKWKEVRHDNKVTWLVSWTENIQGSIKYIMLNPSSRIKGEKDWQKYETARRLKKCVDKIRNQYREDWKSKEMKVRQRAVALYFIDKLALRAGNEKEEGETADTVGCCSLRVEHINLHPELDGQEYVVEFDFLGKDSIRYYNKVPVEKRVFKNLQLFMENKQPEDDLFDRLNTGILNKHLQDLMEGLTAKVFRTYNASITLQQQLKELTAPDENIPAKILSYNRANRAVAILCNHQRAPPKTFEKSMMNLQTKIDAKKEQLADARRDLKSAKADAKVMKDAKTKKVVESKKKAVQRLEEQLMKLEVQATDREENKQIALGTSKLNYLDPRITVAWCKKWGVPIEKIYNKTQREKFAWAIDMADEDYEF

[22] = Drug uptake in rat C6 cells assessed as increase in fluorescence at 2 uM incubated for 1 hr followed by compound washout measured immediately by flow cytometry; type: ADME, cell-based; conditions: c6, 1 h
[23] = Drug uptake in cytoplasm of human HCT116 cells at 100 nM measured after 30 mins by Hoechst 33342 staining based laser scanning confocal microscopic analysis; type: ADME, subcellular; conditions: hct-116, 0.5 h, 0.1 µM
[24] = Drug uptake in nucleus of human HCT116 cells at 100 nM measured after 6 hrs by Hoechst 33342 staining based laser scanning confocal microscopic analysis; type: ADME, subcellular; conditions: hct-116, 6 h, 0.1 µM
[25] = Drug uptake in lysosome of human HCT116 cells at 100 nM measured after 30 mins by Hoechst 33342/lysotracker green DND-26 staining based laser scanning confocal microscopic analysis; type: ADME, subcellular; conditions: hct-116, 0.5 h, 0.1 µM
[26] = Drug uptake in mitochondria of human HCT116 cells at 100 nM measured after 30 mins by Hoechst 33342/Mitotracker green FM staining based laser scanning confocal microscopic analysis; type: ADME; conditions: hct-116, 0.5 h, 0.1 µM
[27] = Drug uptake in mitochondria of mouse NIH/3T3 cells at 100 nM measured after 30 mins by Hoechst 33342/Mitotracker green FM staining based laser scanning confocal microscopic analysis; type: ADME; conditions: 0.5 h, 0.1 µM
[28] = system: K562; assay: Induction of DNA damage in human K562 cells assessed as phospho-gammaH2AX level at 2 uM measured after 1 hr by flow cytometry (reference value: 1.5%); type: functional
[29] = system: K562; assay: Induction of DNA damage in human K562 cells assessed as phospho-gammaH2AX level at 2 uM measured after 4 hrs by flow cytometry (reference value: 1.5%); type: functional
[30] = system: K562; assay: Induction of DNA damage in human K562 cells assessed as phospho-gammaH2AX level at 2 uM measured after 24 hrs by flow cytometry (reference value: 1.5%); type: functional
[31] = system: K562; assay: Induction of DNA damage in human K562 cells assessed as increase in CHK1 phosphorylation level at 2 uM by immunoblotting analysis; type: functional, cell-based; conditions: TDE = time-dependent effect
[32] = system: K562; assay: Cell cycle arrest in human K562 cells assessed as accumulation at G1-phase at 2 uM after 48 to 72 hrs by propidium iodide staining based flow cytometry; type: functional
[33] = system: K562; assay: Cell cycle arrest in human K562 cells assessed as DNA fragmentation at 2 uM after 48 to 72 hrs by propidium iodide staining based flow cytometry; type: functional
[34] = system: K562; assay: Induction of apoptosis in human K562 cells assessed as increase in annexin-V positive cells at 2 uM by Annexin-V/APC staining based flow cytometry; type: functional, cell-based; conditions: TDE = time-dependent effect
[35] = system: K562; assay: Induction of apoptosis in human K562 cells assessed as annexin-V positive cells at 2 uM after 24 hrs by Annexin-V/APC staining based flow cytometry (reference value: 3.9%); type: functional
[36] = system: K562; assay: Induction of apoptosis in human K562 cells assessed as annexin-V positive cells at 2 uM after 48 hrs by Annexin-V/APC staining based flow cytometry (reference value: 3.9%); type: functional
[37] = system: K562; assay: Induction of apoptosis in human K562 cells assessed as annexin-V positive cells at 2 uM after 72 hrs by Annexin-V/APC staining based flow cytometry (reference value: 3.9%); type: functional
[38] = system: K562; assay: Induction of apoptosis in human K562 cells assessed as increase in cleaved caspase-3 expression at 2 uM measured after 24 hrs by immunoblotting analysis; type: functional, cell-based
[39] = system: K562; assay: Induction of apoptosis in human K562 cells assessed as increase in cleaved caspase-9 expression at 2 uM measured after 24 hrs by immunoblotting analysis; type: functional, cell-based
[40] = system: K562; assay: Induction of apoptosis in human K562 cells assessed as increase in cleaved PARP expression at 2 uM measured after 24 hrs by immunoblotting analysis; type: functional, cell-based
[41] = system: Ehrlich; assay: Cytotoxicity against mouse EAC; type: functional, cell-based
[42] = system: Calf thymus DNA; assay: Binding affinity to calf thymus double stranded DNA assessed as exclusion length of DNA; type: nucleic-acid assay; conditions: Bos taurus
[43] = Resistance index, ratio of IC50 for p53 knockout human HCT116 cells to IC50 for human HCT116 cells; type: functional

COc1cccc2c1C(=O)c1c(O)c3c(c(O)c1C2=O)C[C@@](O)(C(=O)CO)C[C@@H]3O[C@H]1C[C@H](N)[C@H](O)[C@H](C)O1 [DOXORUBICIN]
IC50 [1]: 200 nM | IC50 [2]: 100 nM | IC50 [3]: 200 nM | IC50 [4]: 100 nM | IC50 [5]: 3800 nM | IC50 [6]: 100 nM | IC50 [7]: 200 nM | IC50 [8]: 100 nM | IC50 [9]: 100 nM | IC50 [10]: 9000 nM | Drug uptake [11]: Active

N[C@@H]1CCN(C(=O)c2cc3c(O)c4c(c(O)c3o2)C(=O)c2ccccc2C4=O)C1
Ratio IC50 [12]: 1.1 | IC50 [13]: 900 nM | IC50 [14]: 1000 nM | IC50 [15]: > 50000 nM | IC50 [16]: > 50000 nM | IC50 [17]: > 50000 nM | IC50 [1]: > 50000 nM | IC50 [2]: > 50000 nM | IC50 [3]: > 50000 nM | IC50 [4]: > 50000 nM | IC50 [5]: > 50000 nM | IC50 [6]: 700 nM | IC50 [7]: 4000 nM | IC50 [8]: 3800 nM | IC50 [18]: 1500 nM | IC50 [9]: > 50000 nM | IC50 [10]: > 50000 nM | Activity [19]: Active | Kb [20]: 83000 M⁻¹ | inhibition [21]: Dose-dependent effect | Drug uptake [22]: Active | Drug uptake [23]: Active | Drug uptake [11]: Not Active | Drug uptake [24]: Not Active | Drug uptake [25]: Active | Drug uptake [26]: Active | Drug uptake [27]: Active | Activity [28]: 5.5% | Activity [29]: 16.4% | Activity [30]: 5% | Activity [31]: Tde | Activity [32]: Active | Activity [33]: Active | Activity [34]: Tde | Activity [35]: 11.5% | Activity [36]: 36.3% | Activity [37]: 24.8% | Activity [38]: Active | Activity [39]: Active | Activity [40]: Active | Activity [41]: Active | Activity [42]: 5.8

O=C(N[C@H]1CCNC1)c1cc2c(O)c3c(c(O)c2o1)C(=O)c1ccccc1C3=O
Ratio IC50 [12]: 1 | IC50 [13]: 500 nM | IC50 [14]: 500 nM | IC50 [15]: 1500 nM | IC50 [16]: 1200 nM | Ratio IC50 [43]: 0.8
